Measurements from patent US20260167632A1, “NICOTINAMIDE DERIVATIVES FOR USE IN TREATING DISORDERS ASSOCIATED WITH KCNK13 ACTIVITY” (Cerevance, Inc., priority 2022, published 2026).

Each compound was assayed against T1, human KCNK13 (Homo sapiens, UniProt Q9HB14) (assay: KCNK13 antagonist activity, thallium flux FLIPR assay in HEK 293 cells stably expressing human KCNK13). Conditions: HEK 293 cells stably expressing human KCNK13, Tl+ sensitive dye, compound 15 min before thallium sulfate, ten point curves; read-out: hKCNK13 IC50.
T1 construct: expressed in transfected cells
T1 sequence (Q9HB14 1-408): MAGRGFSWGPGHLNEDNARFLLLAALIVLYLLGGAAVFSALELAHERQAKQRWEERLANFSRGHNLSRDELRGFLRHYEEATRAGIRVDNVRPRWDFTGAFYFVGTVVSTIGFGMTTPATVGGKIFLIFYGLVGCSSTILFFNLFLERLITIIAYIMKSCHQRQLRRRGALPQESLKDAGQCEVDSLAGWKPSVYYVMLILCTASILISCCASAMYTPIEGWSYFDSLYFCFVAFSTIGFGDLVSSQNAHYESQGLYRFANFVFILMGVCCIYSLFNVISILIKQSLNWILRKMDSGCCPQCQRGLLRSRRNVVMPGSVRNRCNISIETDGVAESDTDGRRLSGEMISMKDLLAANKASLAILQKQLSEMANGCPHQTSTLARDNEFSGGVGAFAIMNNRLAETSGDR
Format: cell-based
Method: 4. Biological Efficacy of Compounds of the Invention
KCNK13 antagonist activity was determined by measuring changes in intracellular Thallium (Tl^+) concentrations using a Tl^+ sensitive fluorescent dye. The changes in fluorescent signal were monitored by Fluorescent Imaging Plate Reader (FLIPR™) technology available from Molecular Devices, LLC, US. KCNK13 mediated increases in intracellular Tl^+ concentration were readily detected by addition of a thallium sulfate Stimulus. 24 hours prior to the assay, human embryonic kidney 293 cells (HEK 293 cells) stably expressing human KCNK13 were seeded in cell culture medium in PDL coated black, clear-bottom 384-well plates (commercially available from Corning Inc., 356663) and grown overnight at 37° C., […]. On the day of the assay, cell culture media was removed and cells were loaded with potassium dye (commercially sold by Molecular Devices, LLC, US, R8222) for 1 hour at room temperature in the dark. Test compounds (at 10 point half log concentration response curves from 100 µM) were added to cells for 15 minutes prior to the addition of thallium sulfate to all wells. The IC50 values were determined from ten point concentration response curves. Curves were generated using the average of two wells for each data point.
Compound `COc1ncc(F)cc1C(=O)N(C)C(C)c1cc(F)ccc1C#N` (single isomer, unassigned) [Example 62, N-(1-(2-cyano-5-fluorophenyl)ethyl)-5-fluoro-2-methoxy-N-methylnicotinamide] has an IC50 of at most 1000 nM.
For `O=S(=O)(c1cc(Cl)cnc1OC(F)F)N1CCOc2ccc(F)cc2C1` [Example 115, 4-((5-chloro-2-(difluoromethoxy)pyridin-3-yl)sulfonyl)-7-fluoro-2,3,4,5-tetrahydrobenzo[f][1,4]oxazepine], the IC50 was at most 500 nM.
`COc1ncc(Cl)cc1C(=O)N(C)C(C)c1ccc(F)cc1C#N` (single isomer, unassigned) [Example 66, 5-chloro-N-(1-(2-cyano-4-fluorophenyl)ethyl)-2-methoxy-N-methylnicotinamide] was tested, and the IC50 was at most 5000 nM.
Work on `COc1ncc(Cl)cc1C(=O)N(C)C1COc2ccccc21` (single isomer, unassigned) [Example 26, 5-chloro-N-(2,3-dihydrobenzofuran-3-yl)-2-methoxy-N-methylnicotinamide] yielded an IC50 of at most 500 nM.
For `CN(C(=O)c1cc(Cl)cnc1OC(F)F)C1CS(=O)(=O)c2ccccc21` (centres unmarked) [Example 119, 5-chloro-2-(difluoromethoxy)-N-(1,1-dioxido-2,3-dihydrobenzo[b]thiophen-3-yl)-N-methylnicotinamide], the IC50 was at most 500 nM.
With `CC(c1cccc(F)c1)N(C)C(=O)c1cc(Cl)cnc1OC(F)F` (single isomer, unassigned) [Example 87, 5-chloro-2-(difluoromethoxy)-N-(1-(3-fluorophenyl)ethyl)-N-methylnicotinamide] the IC50 was at most 200 nM.
In the case of `COc1ncc(Cl)cc1S(=O)(=O)N1CCOc2ccc(F)cc2C1` [Example 54, 4-((5-chloro-2-methoxypyridin-3-yl)sulfonyl)-7-fluoro-2,3,4,5-tetrahydrobenzo[f][1,4]oxazepine], the IC50 is reported as at most 500 nM.
In the case of `CCN(Cc1ccccc1)C(=O)c1cc(Cl)cnc1OC` [Example 47, N-benzyl-5-chloro-N-ethyl-2-methoxynicotinamide], the IC50 is reported as at most 1000 nM.
Compound `COc1ncc(Cl)cc1C(=O)N(C)C1COc2cc(F)ccc21` (single isomer, unassigned) [Example 46, 5-chloro-N-(6-fluoro-2,3-dihydrobenzofuran-3-yl)-2-methoxy-N-methylnicotinamide] has an IC50 of at most 1000 nM.
Work on `COc1ncc(Cl)cc1C(=O)N(C)Cc1ccccc1` [Example 1, N-benzyl-5-chloro-2-methoxy-N-methylnicotinamide] yielded an IC50 of at most 100 nM.
Compound `COc1ncc(Cl)cc1C(=O)N(C)C(C)c1ccc(F)cc1C#N` (single isomer, unassigned) [Example 67, 5-chloro-N-(1-(2-cyano-4-fluorophenyl)ethyl)-2-methoxy-N-methylnicotinamide] has an IC50 of at most 500 nM.
Compound `COc1ncc(Cl)cc1C(=O)N(C)C1CCc2ccc(C#N)cc21` (centres unmarked) [Example 2, 5-chloro-N-(6-cyano-2,3-dihydro-1H-inden-1-yl)-2-methoxy-N-methylnicotinamide] has an IC50 of at most 1000 nM.
`CN(Cc1cccc(Cl)c1)S(=O)(=O)c1cc(F)cnc1OC(F)F` [Example 108, N-(3-chlorobenzyl)-2-(difluoromethoxy)-5-fluoro-N-methylpyridine-3-sulfonamide] gave an IC50 of at most 200 nM.
In the case of `CCN(Cc1ccccc1F)C(=O)c1cc(Cl)cnc1OC` [Example 48, 5-chloro-N-ethyl-N-(2-fluorobenzyl)-2-methoxynicotinamide], the IC50 is reported as at most 500 nM.
Work on `O=S(=O)(c1cc(F)cnc1OC(F)F)N1CCc2cc(F)cc(F)c2C1` [Example 116] yielded an IC50 of at most 500 nM.
Compound `C[C@H](c1cccc(F)c1)N(C)S(=O)(=O)c1cc(F)cnc1OC(F)F` [Example 104, (R)-2-(difluoromethoxy)-5-fluoro-N-(i-(3-fluorophenyl)ethyl)-N-methylpyridine-3-sulfonamide] has an IC50 of at most 1000 nM.
`CN(Cc1cccc(C(F)(F)F)c1)C(=O)c1cc(Cl)cnc1OC(F)F` [Example 82, 5-chloro-2-(difluoromethoxy)-N-methyl-N-(3-(trifluoromethyl)benzyl)nicotinamide] was tested, and the IC50 was at most 500 nM.
